# Measured values reported in ChEMBL document CHEMBL1201862, “PubChem BioAssay data set” (2004).
# Activity calls are given as the source filed them.
# Tests used:
# [1] = target: T1, Alkaline phosphatase, tissue-nonspecific isozyme (Homo sapiens, UniProt P05186); assay: TNAP enzyme activators, dose response, selectivity assay for mouse IAP activator project, biochemical, TNAP isozyme, mouse IAP uHTS hits (AID 488880); assay type: functional
# T1 sequence (P05186 whole entry): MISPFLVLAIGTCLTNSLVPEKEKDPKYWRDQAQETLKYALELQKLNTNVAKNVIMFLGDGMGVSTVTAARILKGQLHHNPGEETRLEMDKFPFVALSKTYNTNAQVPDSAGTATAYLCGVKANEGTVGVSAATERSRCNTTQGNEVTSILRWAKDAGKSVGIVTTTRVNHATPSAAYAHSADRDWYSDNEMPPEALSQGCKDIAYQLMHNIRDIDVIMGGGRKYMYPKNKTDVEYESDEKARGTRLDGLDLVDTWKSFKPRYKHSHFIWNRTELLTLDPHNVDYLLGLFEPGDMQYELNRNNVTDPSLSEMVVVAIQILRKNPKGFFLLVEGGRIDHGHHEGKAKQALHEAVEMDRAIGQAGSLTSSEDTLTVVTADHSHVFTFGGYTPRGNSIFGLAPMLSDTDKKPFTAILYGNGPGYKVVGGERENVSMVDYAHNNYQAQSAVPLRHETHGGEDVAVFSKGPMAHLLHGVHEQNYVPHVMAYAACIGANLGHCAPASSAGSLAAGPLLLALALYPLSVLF
# [2] = target: Intestinal-type alkaline phosphatase (Mus musculus, UniProt P24822); assay: mouse intestinal alkaline phosphatase activators, dose response, biochemical, luminescence, uHTS hits (AID 488783); assay type: functional
# Chain of Intestinal-type alkaline phosphatase (Mus musculus, UniProt P24822) (P24822 whole entry): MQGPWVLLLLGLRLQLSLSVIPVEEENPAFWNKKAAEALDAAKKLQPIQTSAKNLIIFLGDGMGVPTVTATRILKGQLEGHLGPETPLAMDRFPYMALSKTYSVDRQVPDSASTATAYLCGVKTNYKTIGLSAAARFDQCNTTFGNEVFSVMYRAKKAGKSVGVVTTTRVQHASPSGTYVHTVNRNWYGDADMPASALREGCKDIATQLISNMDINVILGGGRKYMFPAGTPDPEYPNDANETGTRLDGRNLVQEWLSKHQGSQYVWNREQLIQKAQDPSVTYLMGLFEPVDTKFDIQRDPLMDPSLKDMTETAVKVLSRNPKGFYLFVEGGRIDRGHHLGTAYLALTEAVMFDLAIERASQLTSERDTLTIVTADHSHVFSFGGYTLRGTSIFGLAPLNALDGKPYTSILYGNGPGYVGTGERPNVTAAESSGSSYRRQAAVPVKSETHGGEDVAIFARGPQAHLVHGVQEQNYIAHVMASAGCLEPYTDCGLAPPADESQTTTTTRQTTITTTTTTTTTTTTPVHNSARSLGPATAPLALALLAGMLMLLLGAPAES
# [3] = target: Intestinal-type alkaline phosphatase (Homo sapiens, UniProt P09923); assay: activation of human intestinal alkaline phosphatase – biochemical, dose response (AID 488873); assay type: functional
# Chain of Intestinal-type alkaline phosphatase (Homo sapiens, UniProt P09923) (P09923 whole entry): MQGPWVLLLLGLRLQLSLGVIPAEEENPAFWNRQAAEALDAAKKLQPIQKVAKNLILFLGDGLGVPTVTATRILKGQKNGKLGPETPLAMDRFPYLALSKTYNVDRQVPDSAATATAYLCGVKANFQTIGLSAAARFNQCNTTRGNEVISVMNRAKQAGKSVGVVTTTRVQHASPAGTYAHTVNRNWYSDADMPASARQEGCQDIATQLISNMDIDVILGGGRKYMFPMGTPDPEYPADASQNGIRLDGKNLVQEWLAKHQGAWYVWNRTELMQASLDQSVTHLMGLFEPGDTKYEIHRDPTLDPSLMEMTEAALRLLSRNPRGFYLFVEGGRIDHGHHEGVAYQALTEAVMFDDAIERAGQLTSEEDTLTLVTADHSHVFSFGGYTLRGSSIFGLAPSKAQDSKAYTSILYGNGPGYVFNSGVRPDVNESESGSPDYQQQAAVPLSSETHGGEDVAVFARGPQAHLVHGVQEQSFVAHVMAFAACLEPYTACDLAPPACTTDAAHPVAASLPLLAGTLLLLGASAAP
# [4] = system: HEK293; assay: SAR analysis of compounds that are cytotoxic to HEK293 - Set 3. [Related pubchem assays (depositor defined):AID1575, AID1578, AID1848, AID1849, AID2001, AID2333, AID2334, AID2335, AID2337, AID2469]; assay type: functional, cell-based; details: Homo sapiens
# [5] = system: HEK293; assay: cells; details: Homo sapiens
# [6] = target: T2, Nucleotide-binding oligomerization domain-containing protein 1 (Homo sapiens, UniProt Q9Y239); assay: SAR analysis of compounds that inhibit NOD1 - Set 3. [Related pubchem assays (depositor defined):AID1566, AID1575, AID1578, AID1849, AID1852, AID2333, AID2335, AID2466]; assay type: functional
# T2 sequence (Q9Y239 whole entry): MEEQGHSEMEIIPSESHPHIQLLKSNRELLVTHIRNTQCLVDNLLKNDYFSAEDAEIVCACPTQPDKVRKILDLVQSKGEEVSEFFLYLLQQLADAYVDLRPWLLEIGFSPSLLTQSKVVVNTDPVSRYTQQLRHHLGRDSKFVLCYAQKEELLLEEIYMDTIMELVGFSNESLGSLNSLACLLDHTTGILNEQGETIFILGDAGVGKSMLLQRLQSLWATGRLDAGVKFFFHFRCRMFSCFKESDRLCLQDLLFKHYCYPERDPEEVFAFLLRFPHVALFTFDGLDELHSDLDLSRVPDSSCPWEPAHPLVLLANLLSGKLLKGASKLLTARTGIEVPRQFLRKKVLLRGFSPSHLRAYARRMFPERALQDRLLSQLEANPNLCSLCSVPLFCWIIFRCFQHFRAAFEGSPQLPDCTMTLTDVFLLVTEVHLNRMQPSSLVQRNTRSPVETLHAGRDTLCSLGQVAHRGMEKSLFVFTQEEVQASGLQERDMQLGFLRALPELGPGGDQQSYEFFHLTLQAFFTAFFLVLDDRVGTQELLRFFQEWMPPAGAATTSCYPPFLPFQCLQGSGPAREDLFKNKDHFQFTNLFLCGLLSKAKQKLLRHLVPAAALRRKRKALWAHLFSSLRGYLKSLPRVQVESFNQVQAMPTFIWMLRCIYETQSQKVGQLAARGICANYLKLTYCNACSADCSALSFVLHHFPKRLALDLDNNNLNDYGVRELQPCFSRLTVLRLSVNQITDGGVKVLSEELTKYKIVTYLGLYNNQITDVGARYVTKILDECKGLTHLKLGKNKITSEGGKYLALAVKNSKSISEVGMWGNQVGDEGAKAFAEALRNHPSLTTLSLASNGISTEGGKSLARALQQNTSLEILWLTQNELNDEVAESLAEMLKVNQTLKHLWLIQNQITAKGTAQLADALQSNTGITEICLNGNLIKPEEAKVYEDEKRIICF
# [7] = target: Nucleotide-binding oligomerization domain-containing protein 2 (Homo sapiens, UniProt Q9HC29); assay: NOD2 signaling inhibitors, analog potency, SAR follow-up, cell-based, set 3 (AID 2799); assay type: functional
# Chain of Nucleotide-binding oligomerization domain-containing protein 2 (Q9HC29 whole entry, the tested form may be a part): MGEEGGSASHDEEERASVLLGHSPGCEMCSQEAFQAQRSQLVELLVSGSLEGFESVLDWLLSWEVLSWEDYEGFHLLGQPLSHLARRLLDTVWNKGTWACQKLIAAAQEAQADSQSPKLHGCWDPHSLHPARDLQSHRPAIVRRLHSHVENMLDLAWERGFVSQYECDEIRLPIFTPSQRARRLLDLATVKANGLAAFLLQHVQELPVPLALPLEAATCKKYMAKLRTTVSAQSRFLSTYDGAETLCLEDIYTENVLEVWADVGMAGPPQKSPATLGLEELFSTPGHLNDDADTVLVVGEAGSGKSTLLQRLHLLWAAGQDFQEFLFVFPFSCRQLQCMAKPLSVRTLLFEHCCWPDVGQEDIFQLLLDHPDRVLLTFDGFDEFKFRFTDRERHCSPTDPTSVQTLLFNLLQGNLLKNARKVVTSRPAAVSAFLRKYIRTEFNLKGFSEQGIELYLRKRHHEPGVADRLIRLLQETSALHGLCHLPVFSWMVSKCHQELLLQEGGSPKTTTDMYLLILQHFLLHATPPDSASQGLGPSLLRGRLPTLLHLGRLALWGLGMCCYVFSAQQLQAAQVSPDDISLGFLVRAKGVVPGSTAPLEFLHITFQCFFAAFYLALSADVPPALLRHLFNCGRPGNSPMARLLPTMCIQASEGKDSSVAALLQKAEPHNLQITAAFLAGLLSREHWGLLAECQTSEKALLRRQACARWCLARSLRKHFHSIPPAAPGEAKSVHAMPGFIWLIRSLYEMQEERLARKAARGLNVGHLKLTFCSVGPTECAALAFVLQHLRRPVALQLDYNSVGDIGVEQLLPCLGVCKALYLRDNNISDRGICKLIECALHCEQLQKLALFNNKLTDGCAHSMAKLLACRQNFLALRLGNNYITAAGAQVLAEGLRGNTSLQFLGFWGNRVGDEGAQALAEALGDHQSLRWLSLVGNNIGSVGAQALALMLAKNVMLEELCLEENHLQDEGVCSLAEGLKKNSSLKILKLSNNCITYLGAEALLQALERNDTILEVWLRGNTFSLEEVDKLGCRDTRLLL
# [8] = target: T3, Tumor necrosis factor (Homo sapiens, UniProt P01375); assay: TNFa-triggered NF-kB activation inhibitors, SAR follow-up, cell-based, revised (AID 2337); assay type: functional
# T3 sequence (P01375 whole entry): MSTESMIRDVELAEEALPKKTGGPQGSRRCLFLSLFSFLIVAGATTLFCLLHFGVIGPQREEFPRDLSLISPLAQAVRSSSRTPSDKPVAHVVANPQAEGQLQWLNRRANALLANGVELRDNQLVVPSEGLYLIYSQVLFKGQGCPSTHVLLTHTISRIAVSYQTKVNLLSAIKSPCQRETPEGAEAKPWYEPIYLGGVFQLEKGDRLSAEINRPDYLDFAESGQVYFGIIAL
# [9] = target: T3, Tumor necrosis factor; assay: TNFa-triggered NF-kB activation inhibitors, SAR follow-up, cell-based, set 3 (AID 2801); assay type: functional
# [10] = target: T4, Kappa-type opioid receptor (Homo sapiens, UniProt P41145); assay type: functional
# T4 sequence (P41145 whole entry): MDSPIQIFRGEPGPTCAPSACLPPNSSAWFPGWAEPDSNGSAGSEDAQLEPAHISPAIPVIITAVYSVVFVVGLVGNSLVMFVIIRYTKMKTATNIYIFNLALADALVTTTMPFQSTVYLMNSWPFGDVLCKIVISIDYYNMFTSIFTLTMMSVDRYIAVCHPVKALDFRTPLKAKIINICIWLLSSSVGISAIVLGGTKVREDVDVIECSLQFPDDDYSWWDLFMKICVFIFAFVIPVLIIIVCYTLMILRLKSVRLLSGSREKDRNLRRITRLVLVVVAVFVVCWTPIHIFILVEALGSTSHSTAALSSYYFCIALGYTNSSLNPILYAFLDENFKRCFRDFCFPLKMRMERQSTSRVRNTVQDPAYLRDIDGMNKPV
# [11] = inhibitors of firefly luciferase expression or activity, dose response, H4 neuroglioma cells, luminescence (AID 1990); assay type: functional, cell-based
# [12] = target: G-protein coupled receptor 55 (Homo sapiens, UniProt Q9Y2T6); assay: GPR55 agonists via beta-arrestin recruitment, primary screen, imaging, U2OS cells, beta-arrestin-GFP redistribution (AID 1961); assay type: functional
# [13] = target: T5, Delta-type opioid receptor (Homo sapiens, UniProt P41143); assay: HTS Image-Based Screen for Antagonists of the DOR Receptor. [Related pubchem assays (depositor defined):AID1777, AID1785, AID1786, AID2133]; assay type: functional
# T5 sequence (P41143 whole entry): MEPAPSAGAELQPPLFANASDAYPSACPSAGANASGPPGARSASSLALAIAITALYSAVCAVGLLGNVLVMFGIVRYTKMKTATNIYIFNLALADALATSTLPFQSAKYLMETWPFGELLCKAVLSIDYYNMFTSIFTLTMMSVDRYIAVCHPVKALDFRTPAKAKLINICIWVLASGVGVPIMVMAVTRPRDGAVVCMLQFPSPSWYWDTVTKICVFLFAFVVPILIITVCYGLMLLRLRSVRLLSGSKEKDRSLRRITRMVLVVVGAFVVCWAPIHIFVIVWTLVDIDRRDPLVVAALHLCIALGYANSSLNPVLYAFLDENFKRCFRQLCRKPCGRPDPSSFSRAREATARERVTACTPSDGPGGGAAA
# [14] = target: T5, Delta-type opioid receptor; assay: HTS Image-Based Screen for Agonists of the DOR Receptor. [Related pubchem assays (depositor defined):AID1777, AID1786, AID2133]; assay type: functional
# [15] = target: Mu-type opioid receptor (Homo sapiens, UniProt P35372); assay: HTS Image-Based Screen for Agonists of the MOR Receptor. [Related pubchem assays (depositor defined):AID1777, AID1785, AID1786, AID2133]; assay type: functional;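 note: imaging of beta-arrestin GFP recruitment into spots after receptor activation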
# [16] = target: T6, Heat shock factor protein 1 (Mus musculus, UniProt P38532); assay: HSF1 potentiators in luciferase reporter cells, confirmation, cell-based, NIH3T3, luminescence, dose retest (AID 435004); assay type: functional;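 note: stress induced by proteasome inhibitor MG132 added 30 min after compound; luciferase reporter driven by HSF1 response element in NIH3T3 cells; actives raise luminescence as potentiators of the MG132 stress response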
# T6 sequence (P38532 whole entry): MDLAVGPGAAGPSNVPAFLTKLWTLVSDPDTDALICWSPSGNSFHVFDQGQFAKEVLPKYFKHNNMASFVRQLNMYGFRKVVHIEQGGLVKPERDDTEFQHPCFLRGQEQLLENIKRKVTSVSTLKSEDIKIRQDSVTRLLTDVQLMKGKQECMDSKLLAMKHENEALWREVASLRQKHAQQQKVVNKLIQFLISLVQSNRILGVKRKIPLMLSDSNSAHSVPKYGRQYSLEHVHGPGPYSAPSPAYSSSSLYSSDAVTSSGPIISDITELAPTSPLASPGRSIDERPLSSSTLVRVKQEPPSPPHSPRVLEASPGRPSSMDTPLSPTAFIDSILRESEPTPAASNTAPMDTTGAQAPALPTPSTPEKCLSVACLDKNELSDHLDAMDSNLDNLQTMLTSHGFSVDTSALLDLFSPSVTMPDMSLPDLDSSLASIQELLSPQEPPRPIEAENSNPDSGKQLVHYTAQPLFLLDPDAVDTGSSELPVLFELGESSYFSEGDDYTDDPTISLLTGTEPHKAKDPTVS
# [17] = Luminescence Cell-Based Dose Response HTS to Identify Inhibitors of 5'UTR Stem-Loop Driven Prion Protein mRNA Translation in H4 Neuroglioblastoma Cells. [Related pubchem assays: 1827 (Project Summary), 1813 (Primary HTS)]; assay type: functional
# [18] = target: Beta-galactosidase (Escherichia coli, UniProt Q8VNN2); assay type: functional
# Chain of Beta-galactosidase (Q8VNN2 whole entry): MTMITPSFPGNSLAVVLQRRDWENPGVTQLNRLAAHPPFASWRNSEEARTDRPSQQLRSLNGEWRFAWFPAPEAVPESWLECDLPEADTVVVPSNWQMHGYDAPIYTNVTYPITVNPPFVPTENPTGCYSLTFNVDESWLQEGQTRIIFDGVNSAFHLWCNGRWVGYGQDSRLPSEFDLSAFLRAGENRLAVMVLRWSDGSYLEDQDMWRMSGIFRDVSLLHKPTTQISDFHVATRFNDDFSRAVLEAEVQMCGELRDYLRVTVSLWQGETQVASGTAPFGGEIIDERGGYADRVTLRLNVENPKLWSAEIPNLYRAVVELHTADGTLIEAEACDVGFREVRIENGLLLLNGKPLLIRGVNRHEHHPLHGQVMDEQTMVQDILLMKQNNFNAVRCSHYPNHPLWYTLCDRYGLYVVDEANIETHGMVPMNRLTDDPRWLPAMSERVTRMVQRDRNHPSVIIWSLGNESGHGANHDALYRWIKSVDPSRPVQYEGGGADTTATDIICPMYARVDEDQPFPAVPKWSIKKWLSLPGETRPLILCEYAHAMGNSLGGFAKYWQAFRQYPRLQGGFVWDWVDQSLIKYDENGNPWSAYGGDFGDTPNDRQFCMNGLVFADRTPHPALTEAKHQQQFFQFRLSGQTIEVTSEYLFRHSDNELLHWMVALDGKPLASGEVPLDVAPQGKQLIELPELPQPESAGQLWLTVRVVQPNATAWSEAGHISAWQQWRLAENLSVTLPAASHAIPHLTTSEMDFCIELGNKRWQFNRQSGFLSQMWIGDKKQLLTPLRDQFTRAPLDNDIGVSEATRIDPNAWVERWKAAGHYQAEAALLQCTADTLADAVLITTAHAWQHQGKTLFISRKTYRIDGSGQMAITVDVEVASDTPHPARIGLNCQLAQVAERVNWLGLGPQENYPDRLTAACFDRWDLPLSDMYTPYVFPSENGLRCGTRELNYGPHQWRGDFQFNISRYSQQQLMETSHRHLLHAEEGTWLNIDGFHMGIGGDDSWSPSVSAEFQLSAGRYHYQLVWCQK
# [19] = target: T4, Kappa-type opioid receptor; assay type: functional; remark: listed apart in the source
# [20] = inhibitors of SNCA 5'UTR-driven reporter translation, confirmation, H4 neuroglioma cells, luminescence (AID 1988); assay type: functional, cell-based
# [21] = cytotoxicity toward NIH3T3 fibroblasts, dose response, counter-screen, cell-based, ATP luminescence, mouse fibroblasts (AID 2010); assay type: functional;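 note: cells exposed to compound for about 90 hours before reading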
# [22] = inhibitors of intracellular T. cruzi replication, confirmation, NIH3T3 host cells, beta-gal luminescence (AID 2044); assay type: functional, cell-based;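 note: intracellular parasites grown in NIH/3T3 mouse fibroblasts as host cells; luminescent beta-galactosidase reporter signal from transgenic T. cruzi replicating inside host cells; inhibitors lower the luminescence signal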
# [23] = target: T7, Microphthalmia-associated transcription factor (Homo sapiens, UniProt O75030); assay: TRPM1 promoter luciferase signal decrease, dose response, MITF inhibitor project, cell-based, SK-MEL-5, cherry-picked, set 3 (AID 493073); assay type: functional
# T7 sequence (O75030 whole entry): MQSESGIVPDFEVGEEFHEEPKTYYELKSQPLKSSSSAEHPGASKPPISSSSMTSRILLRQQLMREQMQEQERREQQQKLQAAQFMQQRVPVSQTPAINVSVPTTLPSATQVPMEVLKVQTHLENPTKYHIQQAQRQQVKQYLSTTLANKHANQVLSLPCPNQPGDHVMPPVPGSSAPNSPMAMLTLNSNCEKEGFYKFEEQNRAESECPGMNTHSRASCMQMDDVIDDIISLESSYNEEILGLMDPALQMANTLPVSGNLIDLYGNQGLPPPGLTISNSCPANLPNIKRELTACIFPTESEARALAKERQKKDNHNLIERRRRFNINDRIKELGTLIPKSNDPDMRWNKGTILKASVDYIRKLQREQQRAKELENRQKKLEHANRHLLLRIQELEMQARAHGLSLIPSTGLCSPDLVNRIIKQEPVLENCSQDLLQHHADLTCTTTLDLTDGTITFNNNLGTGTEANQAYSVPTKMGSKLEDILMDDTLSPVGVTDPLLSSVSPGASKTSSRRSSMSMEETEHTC
# [24] = target: Peroxisome proliferator-activated receptor gamma/Nuclear receptor coactivator 2 (Homo sapiens, UniProt P37231); assay: TR-FRET dose response biochemical High Throughput Screening assay for agonists of the steroid receptor coactivator 2 (SRC-2) recruitment by the peroxisome proliferator-activated receptor gamma (PPAR gamma): non-selective agonists. [Related pubchem assays: 1297, 1032 ]; assay type: functional
# [25] = target: Peroxisome proliferator-activated receptor gamma/Nuclear receptor coactivator 3 (Homo sapiens, UniProt P37231); assay: TR-FRET dose response biochemical High Throughput Screening assay for agonists of the steroid receptor coactivator 3 (SRC-3) recruitment by the peroxisome proliferator-activated receptor gamma (PPAR gamma): non-selective agonists. [Related pubchem assays: 1301 (Confirmation screen.), 1048 (Primary screen.)]; assay type: functional
# [26] = target: Peroxisome proliferator-activated receptor gamma/Nuclear receptor coactivator 1 (Homo sapiens, UniProt P37231); assay: TR-FRET dose response biochemical High Throughput Screening assay for agonists of the steroid receptor coactivator 1 (SRC-1) recruitment by the peroxisome proliferator-activated receptor gamma (PPAR gamma): non-selective agonists. [Related pubchem assays (depositor defined):AID1300, AID1808, AID504735, AID631]; assay type: protein assay
# [27] = target: T8, Tyrosine-protein phosphatase non-receptor type 7 (Homo sapiens, UniProt P35236); assay type: functional
# T8 sequence (P35236 whole entry): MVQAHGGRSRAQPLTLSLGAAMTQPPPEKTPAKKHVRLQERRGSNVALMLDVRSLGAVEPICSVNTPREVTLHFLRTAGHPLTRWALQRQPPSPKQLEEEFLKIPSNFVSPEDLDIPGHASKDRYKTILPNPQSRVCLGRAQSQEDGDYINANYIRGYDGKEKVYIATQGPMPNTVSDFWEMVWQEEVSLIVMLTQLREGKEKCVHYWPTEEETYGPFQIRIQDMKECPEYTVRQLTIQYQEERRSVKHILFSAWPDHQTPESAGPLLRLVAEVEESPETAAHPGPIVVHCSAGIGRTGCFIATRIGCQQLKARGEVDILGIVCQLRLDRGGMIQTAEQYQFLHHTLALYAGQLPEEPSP
# [28] = target: T9, Tyrosine-protein phosphatase non-receptor type 22 (Homo sapiens, UniProt Q9Y2R2); assay type: functional
# T9 sequence (Q9Y2R2 whole entry): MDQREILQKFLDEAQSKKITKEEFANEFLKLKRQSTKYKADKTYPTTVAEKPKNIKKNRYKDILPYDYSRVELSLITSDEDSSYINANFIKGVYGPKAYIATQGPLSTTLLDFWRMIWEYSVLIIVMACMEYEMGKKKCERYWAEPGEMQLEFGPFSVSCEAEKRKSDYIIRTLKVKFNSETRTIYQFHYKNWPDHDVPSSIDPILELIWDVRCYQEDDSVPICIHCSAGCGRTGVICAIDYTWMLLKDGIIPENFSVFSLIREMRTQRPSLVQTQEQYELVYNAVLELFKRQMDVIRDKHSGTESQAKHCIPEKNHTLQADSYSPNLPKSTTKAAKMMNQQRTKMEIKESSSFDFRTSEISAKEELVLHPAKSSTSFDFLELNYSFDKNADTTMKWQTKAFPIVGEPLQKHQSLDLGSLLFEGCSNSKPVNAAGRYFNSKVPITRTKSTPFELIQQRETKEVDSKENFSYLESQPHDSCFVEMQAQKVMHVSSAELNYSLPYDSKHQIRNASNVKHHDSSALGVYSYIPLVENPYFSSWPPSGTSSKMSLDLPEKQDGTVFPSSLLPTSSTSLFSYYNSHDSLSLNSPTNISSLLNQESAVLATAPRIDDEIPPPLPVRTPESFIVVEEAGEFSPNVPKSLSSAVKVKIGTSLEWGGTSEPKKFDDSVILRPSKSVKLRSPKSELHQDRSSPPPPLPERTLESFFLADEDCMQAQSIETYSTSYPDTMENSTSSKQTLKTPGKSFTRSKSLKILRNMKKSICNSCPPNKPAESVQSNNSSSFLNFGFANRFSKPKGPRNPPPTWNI
# [29] = target: T9, Tyrosine-protein phosphatase non-receptor type 22; assay type: functional; remark: listed apart in the source
smiles,measurement,setting,value
O=C1CC(c2ccc(O)c(O)c2)Oc2cc(O)cc(O)c21 (centres undefined),EC50,[1],81.8 µM (active)
same,EC50,[2],54.1 µM (active)
same,EC50,[3],50.4 µM (active)
Nc1cc(NC(=O)c2ccc3ccccc3c2O)ccc1Cl,IC50,[4],> 20 µM (inactive)
same,IC50,[5],> 20 µM (inactive)
same,IC50,[6],> 20 µM (inactive)
same,IC50,[7],> 20 µM (inactive)
same,IC50,[8],> 20 µM (inactive)
same,IC50,[9],> 20 µM (inactive)
COc1ccc(C(=O)/C=C/C(=O)N(CC(=O)NC2CCCCC2)Cc2ccccc2)c(O)c1,IC50,[10],8.34 µM
same,EC50,[11],> 60 µM (not active)
same,EC50,[12],> 32 µM (inactive)
same,IC50,[13],> 32 µM (inactive)
same,EC50,[14],> 32 µM (inactive)
same,EC50,[15],> 32 µM (inactive)
same,EC50,[16],> 260 µM (inactive)
same,EC50,[17],> 120 µM (not active)
same,EC50,[18],> 31.5 µM (inactive)
same,IC50,[19],4.97 µM (active)
same,EC50,[20],9.06 µM (active)
same,EC50,[21],> 60 µM (inconclusive)
same,EC50,[22],1.64 µM (active)
same,AC50,[23],5.24 µM (active)
COCCNc1nc2ccccc2nc1NS(=O)(=O)c1ccc(C)cc1C,EC50,[24],> 79.4 µM (not active)
same,EC50,[25],> 79.4 µM (not active)
same,EC50,[26],> 79.4 µM (inactive)
CCOC(=O)c1cnc2c(Cl)c(Cl)ccc2c1NCCN1CCOCC1,IC50,[27],> 79.4 µM (inactive)
same,IC50,[28],> 79.4 µM (inactive)
same,IC50,[29],> 79.4 µM (inactive)
